# PubChem BioAssay AID248 (DTP/NCI, 2004)
# Where “and” joins values, the source holds several entries; their conditions need not be identical. Identical values can stand only once. Inconclusive results and toxic doses are left out.
# System: L1210 leukemia ip in BDF1 mice, survival T/C
# Assay: NCI In Vivo Anticancer Drug Screen. Data for tumor model L1210 Leukemia (intraperitoneal) in B6D2F1 (BDF1) mice
# Conditions: endpoint: mean survival time, higher = longer survival
# In short: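 Mice bearing the transplanted tumor received compound or vehicle. Survival of the treated group was divided by that of the vehicle-treated control group to give the ratio.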
# [1] = dose: 50.0 mg/kg/injection, schedule: Q01DX001 (ip), vehicle: saline
# [2] = dose: 100.0 mg/kg/injection, schedule: Q01DX001 (ip), vehicle: saline
# [3] = dose: 200.0 mg/kg/injection, schedule: Q01DX001 (ip), vehicle: saline
# [4] = dose: 400.0 mg/kg/injection, schedule: Q01DX001 (ip), vehicle: saline
# [5] = dose: 100.0 mg/kg/injection, schedule: Q01DX009 (ip), vehicle: Klucel (hydroxypropylcellulose) (HPC)
# [6] = dose: 200.0 mg/kg/injection, schedule: Q01DX009 (ip), vehicle: Klucel (hydroxypropylcellulose) (HPC)
# [7] = dose: 100.0 mg/kg/injection, schedule: Q01DX001 (ip), vehicle: carboxymethylcellulose (CMC)
# [8] = dose: 200.0 mg/kg/injection, schedule: Q01DX001 (ip), vehicle: carboxymethylcellulose (CMC)
# [9] = dose: 400.0 mg/kg/injection, schedule: Q01DX001 (ip), vehicle: carboxymethylcellulose (CMC)
# [10] = dose: 100.0 mg/kg/injection, schedule: Q04DX003 (ip), vehicle: saline with Tween-80
# [11] = dose: 200.0 mg/kg/injection, schedule: Q04DX003 (ip), vehicle: saline with Tween-80
# [12] = dose: 400.0 mg/kg/injection, schedule: Q04DX003 (ip), vehicle: saline with Tween-80
smiles,measurement,setting,value
COc1c(OC)c(C(C)C)c2c(OC(C)=O)c(C)c(-c3c(C)c(OC(C)=O)c4c(C(C)C)c(OC)c(OC)c5c4c3OC5=O)c3c2c1C(=O)O3,T/C,"dose: 50.0 mg/kg/injection, schedule: Q01DX001 (ip), vehicle: Klucel (hydroxypropylcellulose) (HPC)",100 % of control
same,T/C,"dose: 100.0 mg/kg/injection, schedule: Q01DX001 (ip), vehicle: Klucel (hydroxypropylcellulose) (HPC)",93 % of control
same,T/C,"dose: 200.0 mg/kg/injection, schedule: Q01DX001 (ip), vehicle: Klucel (hydroxypropylcellulose) (HPC)",98 % of control
O=C(O)CCC1COc2ccccc2O1 (centres undefined),T/C,[1],100 % of control
same,T/C,[2],108 % of control
same,T/C,[3],114 % of control
same,T/C,[4],100 % of control
CC(=O)OCC/C(=C/c1cc2ccccc2c2ccccc12)[N+](=O)[O-],T/C,[2],100 % of control
same,T/C,[3],105 % of control
same,T/C,[4],113 % of control
CC(CO)(CO)N1C(=O)c2cccc3cc([N+](=O)[O-])cc(c23)C1=O,T/C,[5],112 % of control
same,T/C,[6],107 % of control
CCC[CH2][Pb]([Cl])([CH2]CCC)[CH2]CCC,T/C,"dose: 6.25 mg/kg/injection, schedule: Q01DX009 (ip), vehicle: saline with Tween-80",90 % of control
O=C(/C=C\c1cccc([N+](=O)[O-])c1)c1ccc(F)cc1,T/C,"dose: 100.0 mg/kg/injection, schedule: Q04DX002 (ip), vehicle: Klucel (hydroxypropylcellulose) (HPC)",100 % of control
same,T/C,"dose: 200.0 mg/kg/injection, schedule: Q04DX002 (ip), vehicle: Klucel (hydroxypropylcellulose) (HPC)",94 % of control
same,T/C,"dose: 400.0 mg/kg/injection, schedule: Q04DX002 (ip), vehicle: Klucel (hydroxypropylcellulose) (HPC)",98 % of control
Oc1ccccc1CNc1ccc(Br)cc1,T/C,"dose: 100.0 mg/kg/injection, schedule: Q04DX003 (ip), vehicle: gum acacia",95 % of control
same,T/C,"dose: 200.0 mg/kg/injection, schedule: Q04DX003 (ip), vehicle: gum acacia",95 % of control
same,T/C,"dose: 400.0 mg/kg/injection, schedule: Q04DX003 (ip), vehicle: gum acacia",93 % of control
CCOC(=O)Nc1cc(NC(c2ccccc2)c2ccccc2)c([N+](=O)[O-])c(NC(=O)OCC)n1,T/C,[7],97 % of control
same,T/C,[8],92 % of control
same,T/C,[9],92 % of control
CCCCCCc1ccccc1,T/C,"dose: 100.0 mg/kg/injection, schedule: Q01DX009 (ip), vehicle: saline with Tween-80",98 % of control
same,T/C,[10],105 % of control
same,T/C,"dose: 200.0 mg/kg/injection, schedule: Q01DX009 (ip), vehicle: saline with Tween-80",98 % of control
same,T/C,[11],94 % of control
same,T/C,"dose: 400.0 mg/kg/injection, schedule: Q01DX009 (ip), vehicle: saline with Tween-80",88 % of control
same,T/C,[12],95 % of control
Cn1nc(N)c2ncc(-c3ccccc3)nc21,T/C,[5],92 % of control
same,T/C,"dose: 100.0 mg/kg/injection, schedule: Q04DX003 (ip), vehicle: saline",103 % of control
same,T/C,[6],95 % of control
same,T/C,"dose: 200.0 mg/kg/injection, schedule: Q04DX003 (ip), vehicle: saline",107 % of control
same,T/C,"dose: 400.0 mg/kg/injection, schedule: Q01DX009 (ip), vehicle: Klucel (hydroxypropylcellulose) (HPC)",98 % of control
same,T/C,"dose: 400.0 mg/kg/injection, schedule: Q04DX003 (ip), vehicle: saline",98 % of control
COC(=O)c1ccc(O)c(Cl)c1,T/C,[7],96 % of control
same,T/C,"dose: 100.0 mg/kg/injection, schedule: Q01DX009 (ip), vehicle: carboxymethylcellulose (CMC)",96 % of control
same,T/C,"dose: 100.0 mg/kg/injection, schedule: Q04DX002 (ip), vehicle: carboxymethylcellulose (CMC)",103 % of control and 90 % of control
same,T/C,"dose: 100.0 mg/kg/injection, schedule: Q04DX003 (ip), vehicle: carboxymethylcellulose (CMC)",97 % of control and 105 % of control
same,T/C,[8],97 % of control
same,T/C,"dose: 200.0 mg/kg/injection, schedule: Q01DX009 (ip), vehicle: carboxymethylcellulose (CMC)",92 % of control
same,T/C,"dose: 200.0 mg/kg/injection, schedule: Q04DX002 (ip), vehicle: carboxymethylcellulose (CMC)",105 % of control and 90 % of control
same,T/C,"dose: 200.0 mg/kg/injection, schedule: Q04DX003 (ip), vehicle: carboxymethylcellulose (CMC)",100 % of control and 91 % of control
same,T/C,[9],91 % of control
same,T/C,"dose: 400.0 mg/kg/injection, schedule: Q01DX009 (ip), vehicle: carboxymethylcellulose (CMC)",96 % of control
same,T/C,"dose: 400.0 mg/kg/injection, schedule: Q04DX002 (ip), vehicle: carboxymethylcellulose (CMC)",97 % of control
same,T/C,"dose: 400.0 mg/kg/injection, schedule: Q04DX003 (ip), vehicle: carboxymethylcellulose (CMC)",102 % of control and 103 % of control
CC(C)(C#N)CCCCCC(C)(C)C#N,T/C,[1],100 % of control
same,T/C,[2],96 % of control
same,T/C,[3],100 % of control
same,T/C,[4],97 % of control
COC(=O)CCC(=O)NCC(=O)OCc1ccccc1,T/C,"dose: 100.0 mg/kg/injection, schedule: Q01DX001 (ip), vehicle: water",105 % of control
same,T/C,"dose: 100.0 mg/kg/injection, schedule: Q04DX003 (ip), vehicle: water",100 % of control
same,T/C,"dose: 200.0 mg/kg/injection, schedule: Q01DX001 (ip), vehicle: water",107 % of control
same,T/C,"dose: 200.0 mg/kg/injection, schedule: Q04DX003 (ip), vehicle: water",96 % of control
same,T/C,"dose: 400.0 mg/kg/injection, schedule: Q01DX001 (ip), vehicle: water",105 % of control
same,T/C,"dose: 400.0 mg/kg/injection, schedule: Q04DX003 (ip), vehicle: water",90 % of control
Nc1nc(N)c(N=Nc2ccc(Cl)cc2)c(Cl)n1,T/C,[7],94 % of control
same,T/C,[8],97 % of control
same,T/C,[9],94 % of control
c1ccc2c(c1)OCOc1ccccc1OCO2,T/C,[7],94 % of control
same,T/C,[8],92 % of control
same,T/C,[9],92 % of control
N#CC1(C#N)CC=CCC1(C#N)C#N,T/C,"dose: 12.5 mg/kg/injection, schedule: Q01DX009 (ip), vehicle: other",92 % of control
same,T/C,"dose: 25.0 mg/kg/injection, schedule: Q01DX009 (ip), vehicle: other",87 % of control
Cc1cc(Cl)c2ccccc2n1,T/C,"dose: 37.5 mg/kg/injection, schedule: Q04DX003 (ip), vehicle: saline",103 % of control
same,T/C,"dose: 75.0 mg/kg/injection, schedule: Q01DX001 (ip), vehicle: other",108 % of control
same,T/C,"dose: 75.0 mg/kg/injection, schedule: Q04DX003 (ip), vehicle: saline",95 % of control
O=C(c1cc(=O)[nH]c(=O)[nH]1)N(CCO)CCO,T/C,"dose: 100.0 mg/kg/injection, schedule: Q01DX Z (ip), vehicle: saline",106 % of control
same,T/C,"dose: 200.0 mg/kg/injection, schedule: Q01DX Z (ip), vehicle: saline",93 % of control
O=NN1CCCNC1=O,T/C,"dose: 3.0 mg/kg/injection, schedule: Q01DX Z (ip), vehicle: carboxymethylcellulose (CMC)",105 % of control
same,T/C,"dose: 6.0 mg/kg/injection, schedule: Q01DX Z (ip), vehicle: carboxymethylcellulose (CMC)",107 % of control
same,T/C,"dose: 12.0 mg/kg/injection, schedule: Q01DX Z (ip), vehicle: carboxymethylcellulose (CMC)",110 % of control
same,T/C,"dose: 50.0 mg/kg/injection, schedule: Q01DX Z (ip), vehicle: carboxymethylcellulose (CMC)",181 % of control
same,T/C,"dose: 75.0 mg/kg/injection, schedule: Q01DX Z (ip), vehicle: carboxymethylcellulose (CMC)",118 % of control
same,T/C,"dose: 100.0 mg/kg/injection, schedule: Q01DX Z (ip), vehicle: carboxymethylcellulose (CMC)",87 % of control
Oc1c(O)c(Cl)c(Cl)c(Cl)c1Cl,T/C,"dose: 12.5 mg/kg/injection, schedule: Q04DX003 (ip), vehicle: saline",97 % of control
same,T/C,"dose: 25.0 mg/kg/injection, schedule: Q04DX003 (ip), vehicle: saline",95 % of control
same,T/C,"dose: 50.0 mg/kg/injection, schedule: Q04DX003 (ip), vehicle: saline",98 % of control
O=C(NC1C=CCCC1)NC1C=CCCC1 (centres undefined),T/C,"dose: 50.0 mg/kg/injection, schedule: Q01DX001 (ip), vehicle: other",88 % of control
same,T/C,"dose: 100.0 mg/kg/injection, schedule: Q01DX001 (ip), vehicle: other",94 % of control
same,T/C,"dose: 200.0 mg/kg/injection, schedule: Q01DX001 (ip), vehicle: other",97 % of control
same,T/C,"dose: 400.0 mg/kg/injection, schedule: Q01DX001 (ip), vehicle: other",94 % of control
O=C(OC(c1ccccc1)c1ccccc1)C(=O)c1ccccc1,T/C,[10],92 % of control
same,T/C,[11],89 % of control
same,T/C,[12],92 % of control
Nc1ncnc2c1c(I)cn2C1OC(CO)C(O)C1O (centres undefined),T/C,"dose: 5.0 mg/kg/injection, schedule: Q01DX001 (ip), vehicle: saline",102 % of control
same,T/C,"dose: 10.0 mg/kg/injection, schedule: Q01DX001 (ip), vehicle: saline",101 % of control
same,T/C,"dose: 20.0 mg/kg/injection, schedule: Q01DX001 (ip), vehicle: saline",103 % of control
same,T/C,"dose: 40.0 mg/kg/injection, schedule: Q01DX001 (ip), vehicle: saline",105 % of control
